Source: ChEMBL document CHEMBL5604063, “ASAP - DENV-2 NS2B-NS3 protease fluorescence dose response” (2024)
“And” between values parts separate entries of the source, which are not always exact repeats. Equal values may be shown once.

Assays:
Genome polyprotein [1] = biological target: T1, Genome polyprotein (dengue virus type 2, UniProt P29990); type: functional, Thailand/16681/1984
Genome polyprotein [2] = biological target: T1, Genome polyprotein; type: functional, Thailand/16681/1984; remark: listed apart in the source

T1 sequence (P29990 1346-1475 limits assumed): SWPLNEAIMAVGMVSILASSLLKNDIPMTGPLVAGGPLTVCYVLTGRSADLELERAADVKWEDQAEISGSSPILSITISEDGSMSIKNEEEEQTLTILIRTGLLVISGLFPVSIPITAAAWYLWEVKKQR
T1 sequence (P29990 1476-2093 limits assumed): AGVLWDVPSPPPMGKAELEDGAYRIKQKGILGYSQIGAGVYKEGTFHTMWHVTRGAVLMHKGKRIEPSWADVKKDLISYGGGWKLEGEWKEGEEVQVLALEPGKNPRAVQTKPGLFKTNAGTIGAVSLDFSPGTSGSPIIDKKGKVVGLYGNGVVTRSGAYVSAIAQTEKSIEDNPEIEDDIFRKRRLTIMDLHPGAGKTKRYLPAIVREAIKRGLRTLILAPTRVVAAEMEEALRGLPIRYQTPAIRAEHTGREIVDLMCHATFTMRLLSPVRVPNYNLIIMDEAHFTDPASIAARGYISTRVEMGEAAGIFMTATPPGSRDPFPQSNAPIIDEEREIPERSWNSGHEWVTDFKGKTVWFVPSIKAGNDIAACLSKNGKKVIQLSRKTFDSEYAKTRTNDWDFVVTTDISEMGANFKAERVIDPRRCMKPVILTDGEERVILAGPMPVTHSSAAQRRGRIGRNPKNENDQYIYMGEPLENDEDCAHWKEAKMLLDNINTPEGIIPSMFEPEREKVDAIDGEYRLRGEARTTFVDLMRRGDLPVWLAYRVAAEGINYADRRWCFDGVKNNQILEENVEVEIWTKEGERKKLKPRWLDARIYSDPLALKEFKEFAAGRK

| SMILES | IC50 (Genome polyprotein [1]) | IC50 (Genome polyprotein [2]) |
| --- | --- | --- |
| Cc1c(C(=O)Nc2cc(C3(C)OCCO3)ccn2)cc(C2CC2)n1C | > 99.5 µM | > 100 µM |
| Cc1ncc(-c2cc(F)cc(C(=O)Nc3ccc4c(c3)CNC4)c2)o1 | > 99.5 µM | > 100 µM |
| O=C(Nc1cc2c(cc1Br)CNC2)c1cc(Cl)cc2[nH]ncc12 | > 99.5 µM | > 100 µM |
| O=C(Nc1cc(-c2cccnc2)ccn1)c1cc2n(n1)CCO2 | > 99.5 µM | > 100 µM |
| Cc1c(C(=O)Nc2cccc([C@H]3CCOC3)c2)cc(C2CC2)n1C | > 99.5 µM | > 100 µM |
| O=C(Nc1cc(-c2cccnc2)ccn1)c1csc(C[C@H]2CCNC2)n1 | > 99.5 µM | > 100 µM |
| O=C(Nc1cc(-c2cccnc2)ccn1)c1nc(C2CC2)co1 | > 99.5 µM | > 100 µM |
| O=C(Nc1cc(-c2cccnc2)ccn1)c1cc2n(n1)CCC2 | > 99.5 µM | > 100 µM |
| CNC(=O)[C@H](Nc1cc(Cl)cc2[nH]ncc12)c1ccc2c(c1)CNC2 | > 99.5 µM | > 100 µM |
| Cc1c(C(=O)Nc2cc(-c3cccnc3)ccn2)cc(C2CCCC2)n1C | > 99.5 µM | > 100 µM |
| C=CC[C@H]1NCc2cc(N[C@H](C(=O)NC(C)C)c3cccc4[nH]ncc34)ccc21 | > 99.5 µM | > 100 µM |
| COCCNC(=O)[C@H](Nc1cccc([C@H]2CCOC2)c1)c1cc(Cl)cc2[nH]ncc12 | > 99.5 µM | > 100 µM |
| O=C(Nc1cc(-c2cccnc2)ccn1)c1csc(C[C@H]2CCCNC2)n1 | > 99.5 µM | > 100 µM |
| O=C(Nc1ccc2c(c1)CN[C@H]2C[C@H](O)CO)c1cc(F)cc2[nH]ncc12 | 40.1 µM | 23.2 µM and 22.1 µM |
| CC(C)n1cc(C(=O)Nc2cc(-c3cccnc3)ccn2)c2ccccc21 | > 99.5 µM | > 100 µM |
| O=C(Nc1cc([C@H]2CCOC2)ccn1)c1cc(F)cc2[nH]ccc12 | > 99.5 µM | > 100 µM |
| O=C(Nc1ccc2c(c1)CNC2)c1cc(Cl)cc2[nH]c(-c3ccc(F)cc3O)nc12 | 23.8 µM | 60.1 µM |
| O=C(Nc1cc(-c2cccnc2)ccn1)c1cccc(C2CC2)c1 | > 99.5 µM | > 100 µM |
| CNC(=O)[C@H](Nc1ccc2c(c1)CNC2)c1cccc2[nH]c(C(F)(F)F)nc12 | > 99.5 µM | > 100 µM |
| O=C(NCC(F)F)[C@H](Nc1ccc2c(c1)CNC2)c1cc(F)cc2[nH]ccc12 | > 99.5 µM | > 100 µM |
| O=C(Nc1ccc2c(c1)CNC2)c1cc(Cl)cc2[nH]c(-c3cn[nH]c3)cc12 | > 99.5 µM | > 100 µM |
| Cc1c(C(=O)Nc2cc(-c3cccnc3)ccn2)cc(C2CCCCC2)n1C | > 99.5 µM | > 100 µM |

| SMILES | IC50 (Genome polyprotein [1]) | IC50 (Genome polyprotein [2]) |
| --- | --- | --- |
| c1cc([C@@H]2C[C@H]2c2ccc3c(c2)CNC3)c2cn[nH]c2c1 | > 99.5 µM | > 100 µM |
| O=C(Nc1ccc2c(c1)CNC2)c1cc(Cl)cc2[nH]c(COc3ccccn3)nc12 | > 99.5 µM | 20.1 µM and 16.8 µM |
| Cc1c(C(=O)Nc2cc(C3CCOCC3)ccc2F)cc(C2CC2)n1C | > 99.5 µM | > 100 µM |
| O=C(Nc1cc(-c2cccnc2)ccn1)c1cnn2c1CCC2 | > 99.5 µM | > 100 µM |
| O=C(NCCC1CC1)[C@H](Nc1ccc2c(c1)CNC2)c1cc(Cl)cc(C2CC2)c1 | > 99.5 µM | > 100 µM |
| O=C1Cc2c(C(=O)Nc3ccc4c(c3)CNC4)ccnc2N1 | > 99.5 µM | > 100 µM |
| O=C(Nc1cc([C@H]2CCOC2)ccn1)c1cc(Cl)cc2c1CCC2 | > 99.5 µM | > 100 µM |
| O=C(Nc1ccc2c(c1)CNC2)c1cc(Cl)cc2[nH]c(CN3CCCC3=O)cc12 | > 99.5 µM | > 100 µM |
| Cc1c(C(=O)Nc2cc(-c3cccnc3)ccn2)cc(-c2ccccc2)n1C | > 99.5 µM | > 100 µM |
| Cc1cc(C(=O)Nc2cc(-c3cccnc3)ccn2)c(C)n1C | > 99.5 µM | > 100 µM |
| O=C(Nc1cc(-c2cccnc2)ccn1)c1nnc(C2CC2)s1 | > 99.5 µM | > 100 µM |
| O=C(Nc1ccc2c(c1)C(=O)OC2)c1ccc2c(c1)CNC2 | > 99.5 µM | > 100 µM |
| O=C(Nc1cc(-c2cccnc2)ccn1)c1cn([C@H]2CCCNC2)nn1 | > 99.5 µM | > 100 µM |
| O=C(Nc1ccc2c(c1)CS(=O)(=O)C2)c1cc(Cl)cc2[nH]ncc12 | > 99.5 µM | > 100 µM |
| COc1ccc(-c2nc3c(C(=O)Nc4ccc5c(c4)CNC5)cc(Cl)cc3[nH]2)cc1 | 21.5 µM | 39.5 µM and 40.3 µM |
| Cc1c(C(=O)Nc2cc(SC3COC3)ccn2)cc(C2CC2)n1C | > 99.5 µM | > 100 µM |
| O=C(Nc1ccc2c(c1)CNC2)c1cc(F)cc(-c2cccnc2)c1 | > 99.5 µM | > 100 µM |
| O=C1Cc2c(cccc2C(=O)Nc2cc([C@H]3CCOC3)ccn2)N1 | > 99.5 µM | > 100 µM |
| O=C(Nc1cc(-c2cccnc2)ccn1)c1csc(C2CC2)n1 | > 99.5 µM | > 100 µM |
| O=C(Nc1ccc2c(c1)CNC2)c1cc(Cl)cc2[nH]c(-c3cnccc3O)nc12 | 37.1 µM | > 100 µM |
| O=C(Nc1cc(Br)c2c(c1)CNC2)c1cc(F)cc2[nH]ncc12 | 40.4 µM | 30.6 µM and 22.5 µM |
| O=C(Nc1cc(-c2cccnc2)ccn1)c1ccc(C2CC2)cc1 | > 99.5 µM | > 100 µM |

| SMILES | IC50 (Genome polyprotein [1]) | IC50 (Genome polyprotein [2]) |
| --- | --- | --- |
| O=C(Nc1ccc2c(c1)CNC2)c1cc(C(F)(F)F)c2cn[nH]c2n1 | > 99.5 µM | > 100 µM |
| O=C(NCC(F)F)[C@H](Nc1ccc2c(c1)CNC2)c1cc(F)cc2[nH]ncc12 | > 99.5 µM | 78.2 µM |
| Cc1oc(C2CC2)nc1C(=O)Nc1cc(-c2cccnc2)ccn1 | > 99.5 µM | > 100 µM |
| C=CC[C@H]1NCc2cc(N[C@H](C(=O)NC(C)C)c3cc(Cl)cc4[nH]ncc34)ccc21 | 63.9 µM | 56.9 µM |
| Cc1c(C(=O)Nc2cccc(-c3cccnc3)c2)cc(C2CC2)n1C | > 99.5 µM | > 100 µM |
| CNC(=O)[C@H](Nc1cccc([C@H]2CCOC2)c1)c1cc(C2CC2)n(C)n1 | > 99.5 µM | > 100 µM |
| CC(C)NC(=O)[C@H](Nc1ccc2c(c1)CNC2)c1cccc2cn[nH]c12 | > 99.5 µM | > 100 µM |
| NCc1cc(Cl)cc(C(=O)Nc2cc([C@H]3CCOC3)ccn2)c1 | > 99.5 µM | > 100 µM |
| CC1=C(c2cc(NC(=O)c3cc(Cl)cc4[nH]ncc34)cc3c2CNC3)CCC1=O | > 99.5 µM | > 100 µM |
| Cc1c(C(=O)Nc2cc(-c3cccnc3)ccn2)cc(C(C)(C)C)n1C | > 99.5 µM | > 100 µM |
| Cn1c(C2CC2)cc(C(=O)Nc2cc(-c3cccnc3)ccn2)c1C1CC1 | > 99.5 µM | > 100 µM |
| Cc1c(C(=O)Nc2ccnc(O[C@H]3CCOC3)c2)cc(C2CC2)n1C | > 99.5 µM | > 100 µM |
| O=C(Nc1cc2c(c(C3=CC[C@H](O)CC3)c1)CNC2)c1cc(Cl)cc2[nH]ncc12 | 69.5 µM | > 100 µM |
| Cn1nc(C2CC2)cc1C(=O)Nc1cc(-c2cccnc2)ccn1 | > 99.5 µM | > 100 µM |
| COCCNC(=O)[C@H](Nc1cccc([C@H]2CCOC2)c1)c1cc(F)cc2[nH]ccc12 | > 99.5 µM | > 100 µM |
| CNC(=O)[C@H](Nc1ccc2c(c1)CNC2)c1cc(Cl)cc2c1OCC2 | > 99.5 µM | > 100 µM |
| CC(C)NC(=O)[C@H](Nc1ccc2c(c1)CNC2)c1cc(F)cc2[nH]ccc12 | > 99.5 µM | > 100 µM |
| C=CC[C@H]1NCc2cc(NC(=O)c3cc(F)cc4c3CC(=O)N4)ccc21 | 31.9 µM | 31.9 µM and 23.6 µM |
| O=C(Nc1cc([C@H]2CCOC2)ccn1)c1cc(Br)cc2[nH]ccc12 | > 99.5 µM | > 100 µM |
| NS(=O)(=O)c1cc(F)cc(C(=O)Nc2ccc3c(c2)CNC3)c1 | > 99.5 µM | > 100 µM |
| O=C(Nc1ccc2c(c1)CNC2)c1ccc2ccncc2c1 | > 99.5 µM | > 100 µM |
| O=C(Nc1ccc2c(c1)CNC2)c1cc(F)cc2c1CCNC2 | > 99.5 µM | > 100 µM |

| SMILES | IC50 (Genome polyprotein [1]) | IC50 (Genome polyprotein [2]) |
| --- | --- | --- |
| O=C(Nc1ccc2c(c1)CNC2)c1cc(Br)cc2c1nc1n2CCCC1 | 23.8 µM | 47.5 µM and 35.2 µM |
| O=C(Nc1ccc2c(c1)CNC2)c1n[nH]c2ccc(F)cc12 | > 99.5 µM | 78.7 µM |
| O=C(Nc1ccc2c(c1)CNC2)c1cc(F)cc(-c2ccnn2CC2CC2)c1 | > 99.5 µM | > 100 µM |
| O=C(Nc1ccc2c(c1)CNC2)c1cc(F)cc2nn(-c3ccccn3)nc12 | 4.99 µM and 4.27 µM | 4.11 µM and 3.88 µM |
| O=C(Nc1cc(-c2cccnc2)ccn1)c1c[nH]c2ncccc12 | > 99.5 µM | > 100 µM |
| Fc1cc(CNc2ccc3c(c2)CNC3)c2cn[nH]c2c1 | > 99.5 µM | > 100 µM |
| COCCCNC(=O)[C@H](Nc1ccc2c(c1)CNC2)c1cc(Cl)cc(C2CC2)c1 | > 99.5 µM | > 100 µM |
| O=C(Nc1cc(-c2cccnc2)ccn1)c1cc(C2CC2)[nH]n1 | > 99.5 µM | > 100 µM |
| O=C(Nc1cc(-c2cccnc2)ccn1)c1cc2n(n1)CCS2(=O)=O | > 99.5 µM | > 100 µM |
| O=C1OCc2ccc(NC(=O)c3cc(F)cc4c3CCNC4)cc21 | > 99.5 µM | > 100 µM |
| Cc1c(C(=O)Nc2cccc(-c3ccccc3)c2)cc(C2CC2)n1C | > 99.5 µM | > 100 µM |
| Cc1c(C(=O)Nc2cccc(C3CCOCC3)c2)cc(C2CC2)n1C | > 99.5 µM | > 100 µM |
| Cc1c(C(=O)Nc2cc(-c3cccnc3)ccn2)cc(C2CCC2)n1C | > 99.5 µM | > 100 µM |
| O=C(Nc1cc(-c2cccnc2)ccn1)c1cc2n(n1)CC(F)(F)C2 | > 99.5 µM | > 100 µM |
| O=C(Nc1ccc2c(c1)CNC2)c1cc(F)cc(-c2cnc(C3CC3)s2)c1 | > 99.5 µM | > 100 µM |
| O=C(Nc1cc(-c2cccnc2)ccn1)c1cc2n(n1)CC1(CC1)C2 | > 99.5 µM | > 100 µM |
| CC(C)(C)OC(=O)N1Cc2ccc(NC(=O)c3ccc4c(Br)csc4c3)cc2C1 | > 99.5 µM | > 100 µM |
| Nc1nc2c(Br)cc(C(=O)Nc3ccc4c(c3)CNC4)cc2s1 | 28.2 µM | 51.9 µM and 37.3 µM |
| Cc1c(C(=O)Nc2cc(-c3ccccc3)ccn2)cc(C2CC2)n1C | > 99.5 µM | > 100 µM |
